Measurements reported in patent publication US20210139435A1, “PROSTAGLANDIN ANALOGS AND USES THEREOF” (Lifex Biolabs, Inc., priority 2019, published 2021).

Target: T1, mouse Nurr1 full-length (Mus musculus, UniProt Q06219)
T1 construct: pcDNA3.1 Myc/His mouse Nurr1 full-length construct; expressed in transfected cells; host or cells: SK-N-BE2C
Assay: Luciferase reporter gene assay for Nurr1 transcriptional activity in SK-N-BE2C cells
Assay type: cell-based
Conditions: relative activity over control (luminescence value; 1.0)
Experimental: To investigate whether the PG analogs of the present invention activate Nurr1 function, the inventors of the present invention employed an reporter gene assay and examined the transcriptional activation as described in Kim, C.-H. et al., Proceedings of the National Academy of Sciences 112, 8756-8761, doi:10.1073/pnas.1509742112 (2015).
The gene assay was performed by Luciferase assay as described below:
[Protocol for Luciferase Assay to Determine Nurr1 Transcriptional Activity] • 1. SK-N-BE2C cells were maintained in HyClone™ DMEM High Glucose (Cat. No.: SH30022.01) with 10% (v/v) fetal bovine serum (FBS), 100 units/ml penicillin and 100 μg/ml streptomycin. • 2. Seed 1.5×10^5 SK-N-BE2C cells/well into a 24-well plate and incubate at 37° C. with 5% CO2 for 24 hours. • 3. After 24 hours, transfect cells with pcDNA3.1 Myc/His mouse Nurr1 full-length construct, firefly luciferase reporter vector (pGL-3 basic from Promega, Cat. No.:E1751; with appropriate response element cloned in) and Renilla luciferase control vector (pRL-null from Promega, Cat. No.:E2271) in the ratio of 8:1:1 (Nurr1: firefly: renilla) or 400 ng, 50 ng and 50 ng respectively, amounting to a total of 500 ng in the 50 μl transfection mix for 1 well. • 4. To make the transfection mix, first prepare the DNA with P3000 reagent by adding the appropriate amount of DNA with 1 μl P3000 reagent and top up with Opti-MEM® I Reduced-Serum Media (from ThermoFisher Scientific [Cat. No.: 31985070]) to 25 μl. Incubate for 5 minutes at room temperature. • 5. Make another mix consisting of 1 μl Lipofectamine 3000 reagent with 24 μl Opti-MEM® I Reduced-Serum Media per well. Add this Lipofectamine mix to the previous DNA-P3000 mix (after the previous 5 minute incubation) and incubate them for 15 minutes at room temperature. [P3000:Lipofectamine=1:1]. • 6. In the meantime, change the media in the sample wells with fresh DMEM media without antibiotics. • 7. After 15 minutes incubation, add the 50 μl transfection mix into each well and incubate the plate for 24 hours at 37° C. with 5% CO2. • 8. After 24 hours, change the media to normal DMEM media with antibiotics and add various doses of compounds into designated wells and incubate the plate for another 24 hours at 37° C. with 5% CO2. • 9. Following the 24-hour incubation period, luciferase assay can be conducted using Dual-Glo Luciferase® kit from Promega (Cat. No.: E2920). • 10. Lyse each tested wells for 15 minutes with 75 μl of passive lysis buffer provided in the Dual-Luciferase® kit from Promega (Cat. No.: E1910). [Alternatively, add 75 μl of PBS and 75 μl of Dual-Glo® Luciferase Reagent and incubate for 10 minutes at room temperature (cover the plate with foil to protect from light). Transfer the entire sample in each well to a Greiner CELLSTAR® 96-well white polystyrene plate then proceed to step 13]. • 11. After 15 minutes, transfer each lysed sample to a Greiner CELLSTAR® 96-well white polystyrene plate (Cat. No.:655083). • 12. To each well of lysed cells, add 75 μl of Dual-Glo® Luciferase Reagent and incubate for 10 minutes at room temperature (cover the plate with foil to protect from light). • 13. Set the measurement with a 10-second integrated measurement period. • 14. Add 75 μl of Dual-Glo® Stop & Glo® reagent into each well and incubate for 10 minutes before commencing with the same parameters as before to determine the RLU for the Renilla luciferase. • 15. The averaged reading for wells corresponding to non-transfected cells can be subtracted from each RLU reading and duplicate/triplicate readings can then be averaged. Normalization of the luminescence reading for each well can be carried out by dividing the firefly luciferase RLU with the corresponding Renilla luciferase RLU. Each drug-treated well can then be normalized against the averaged DMSO-treated well reading.

T1 sequence (Q06219 whole entry): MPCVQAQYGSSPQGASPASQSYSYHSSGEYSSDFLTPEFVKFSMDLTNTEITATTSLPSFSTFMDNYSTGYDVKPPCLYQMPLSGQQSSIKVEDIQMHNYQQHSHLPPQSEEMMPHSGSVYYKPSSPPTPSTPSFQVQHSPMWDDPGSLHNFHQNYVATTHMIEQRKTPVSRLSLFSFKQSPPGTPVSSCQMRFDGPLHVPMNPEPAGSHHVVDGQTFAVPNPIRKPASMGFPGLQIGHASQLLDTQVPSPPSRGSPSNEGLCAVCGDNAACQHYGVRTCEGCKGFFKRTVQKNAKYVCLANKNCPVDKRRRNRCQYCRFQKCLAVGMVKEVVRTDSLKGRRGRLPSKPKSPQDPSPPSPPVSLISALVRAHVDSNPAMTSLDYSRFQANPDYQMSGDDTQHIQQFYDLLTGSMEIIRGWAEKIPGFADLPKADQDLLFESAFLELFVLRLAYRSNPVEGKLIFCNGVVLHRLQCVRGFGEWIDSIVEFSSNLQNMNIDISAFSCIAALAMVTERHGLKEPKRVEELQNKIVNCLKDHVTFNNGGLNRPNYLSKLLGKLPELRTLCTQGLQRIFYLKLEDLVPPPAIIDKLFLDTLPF

Fold activity (1 uM)	SMILES
B (1.1~2.0 (moderate))	CCCCCC(=O)/C=C/[C@H]1[C@H](O)CC(=O)[C@@H]1CCCCCCC(=O)O [Compound 19, 15-keto Prostaglandin E1]
B (1.1~2.0 (moderate))	CCCC1([C@H](O)C/C=C/[C@H]2[C@H](O)CC(=O)[C@@H]2CCCCCCC(=O)O)CCC1 [Compound 31, (R)-Butaprost (free acid)]
A (above 2.0 (high activity))	CCCCC[C@H](O)/C=C/[C@H]1[C@H](O)CC(=O)[C@@H]1CC(=O)CCCCC(=O)O [Compound 42, 6-keto Prostaglandin E1]
A (above 2.0 (high activity))	CCCCC[C@H](O)/C=C/[C@H]1[C@H](O)CC(=O)[C@@H]1CCCCCCCO [Compound 89, 1,11a,15S-Trihydroxy-prost-13E-EN-9-ONE]
B (1.1~2.0 (moderate))	C[C@@H](O)CCC[C@H](O)/C=C/[C@H]1[C@H](O)CC(=O)[C@@H]1CCCCCCC(=O)O [Compound 83, 19(R)-hydroxy Prostaglandin E1]
B (1.1~2.0 (moderate))	CCCCC[C@H](O)/C=C/[C@H]1[C@H](O)CC(=O)[C@@H]1CCCCCCCCC(=O)O [Compound 34, 1a,1b-dihomo Prostaglandin E1]
B (1.1~2.0 (moderate))	CCCCC(C)(C)[C@H](O)/C=C/[C@H]1[C@H](O)CC(=O)[C@@H]1CC(=O)CCCCC(=O)O [Compound 84, 16,16-dimethyl-6-keto Prostaglandin E1]
B (1.1~2.0 (moderate))	CCCCC[C@@H](O)CC[C@H]1[C@H](O)CC(=O)[C@@H]1CCCCCCC(=O)O [Compound 66, 13,14-dihydro-15(R)-Prostaglandin E1]
A (above 2.0 (high activity))	CCCCCCC[C@H](O)/C=C/[C@H]1[C@H](O)CC(=O)[C@@H]1C/C=C\CCCC(=O)O [Compound 62, 20-ethyl Prostaglandin E2]
C (below 1.0 (low activity))	CCCCC[C@@H](O)/C=C/[C@H]1[C@H](O)CC(=O)[C@@H]1CCCCCCC(=O)O [Compound 87, 15(R)-PGE1]
C (below 1.0 (low activity))	CCCCC[C@H](O)/C=C/[C@H]1[C@@H](O)CC(=O)[C@@H]1CCCCCCC(=O)O [Compound 85, 11b-Prostaglandin E1]
A (above 2.0 (high activity))	CCCCC(C)(O)C/C=C/[C@H]1[C@H](O)CC(=O)[C@@H]1CCCCCCC(=O)OC (some centres unmarked) [Compound 75, Misoprostol]

More lines, now with the values behind:

SMILES	Fold activity (1 uM)
CCCCCC(=O)/C=C/[C@H]1C(O)CC(=O)[C@H]1C/C=C\CCCC(=O)O (some centres unmarked) [Compound 82, 8-iso-15-keto Prostaglandin E2]	B (1.1~2.0 (moderate))
CCCCC[C@H](O)/C=C/[C@H]1[C@@H](O)CC(=O)[C@@H]1C/C=C\CCCC(=O)O [Compound 21, 11b-Prostaglandin E2]	B (1.1~2.0 (moderate))
CCCCC[C@@H](O)/C=C/[C@H]1[C@H](O)CC(=O)[C@@H]1C/C=C\CCCC(=O)O [Compound 37, 15(R)-Prostaglandin E2]	B (1.1~2.0 (moderate))
CCCC[C@H](C)C[C@H](O)/C=C/[C@H]1[C@H](O)CC(=O)[C@@H]1CCCCC(CC(=O)O)OC (some centres unmarked) [Compound 63, 3-methoxy Limaprost]	B (1.1~2.0 (moderate))
CCCCC[C@](C)(O)/C=C/[C@H]1C(=O)C[C@H](O)[C@@H]1C/C=C\CCCC(=O)O [Compound 57, 15(S)-15-methyl Prostaglandin D2]	B (1.1~2.0 (moderate))
CCCCC[C@H](O)/C=C/[C@H]1[C@H](O)CC(=O)[C@@H]1CCCCCCC(=O)Nc1ccc(NC(=O)c2ccccc2)cc1 [Compound 3, N-(4-(7-((1R,2R,3R)-3-hydroxy-2-((S,E)-3-hydroxyoct-1-en-1-yl)-5-oxocyclopentyl)heptanamido)phenyl)benzamide]	B (1.1~2.0 (moderate))
CCCCC[C@H](O)/C=C/[C@H]1[C@H](O)CC(=O)[C@@H]1C/C=C\CCCC(=O)Oc1ccc(NC(=O)c2ccccc2)cc1 [Compound 52, Prostaglandin E2 p-benzamidophenyl ester]	A (above 2.0 (high activity))
O=C(O)CCC/C=C\CC1C(O)CC(=O)C1/C=C/C(O)CCc1ccccc1 (centres unmarked) [Compound 65, 17-phenyl trinor Prostaglandin D2]	C (below 1.0 (low activity))
CCCCC[C@H](O)/C=C/[C@H]1[C@H](O)CC(=O)[C@@H]1CCCCCCC(=O)OCc1ccccc1 [Compound 15, benzyl 7-((1R,2R,3R)-3-hydroxy-2-((S,E)-3-hydroxyoct-1-enyl)-5-oxocyclopentyl)heptanoate]	A (above 2.0 (high activity))
CCCC[C@H](C)C[C@H](O)/C=C/[C@H]1[C@H](O)CC(=O)[C@@H]1CCCC/C=C/C(=O)O [Compound 67, Limaprost]	A (above 2.0 (high activity))
CCCCC(C)(C)[C@H](O)/C=C/[C@H]1[C@H](O)CC(=O)[C@@H]1C/C=C\CCCC(=O)Oc1ccc(NC(=O)c2ccc(NC(C)=O)cc2)cc1 [Compound 77, 16,16-dimethyl Prostaglandin E2 p-(p-acetamidobenzamido) phenyl ester]	A (above 2.0 (high activity))
O=C(O)CCC/C=C\C[C@H]1C(=O)C[C@@H](O)[C@@H]1/C=C/[C@@H](O)CCc1ccccc1 [Compound 38, 17-phenyl trinor Prostaglandin E2]	B (1.1~2.0 (moderate))
CC/C=C\C[C@H](O)/C=C/[C@H]1[C@H](O)CC(=O)[C@@H]1C/C=C\CCCC(=O)O [Compound 70, Prostaglandin E3]	A (above 2.0 (high activity))
CCCCC[C@H](O)/C=C/[C@H]1[C@H](O)CC(=O)[C@@H]1CCCCCCC(=O)Nc1cccc(C(=O)Nc2ccccc2)c1 [Compound 6, 3-(7-((1R,2R,3R)-3-hydroxy-2-((S,E)-3-hydroxyoct-1-enyl)-5-oxocyclopentyl)heptanamido)-N-phenylbenzamide]	B (1.1~2.0 (moderate))
O=C(O)CCCCCCC1C(=O)NC(=O)N1CCC(O)C1CCCCC1 (centres unmarked) [Compound 90, BW245C]	A (above 2.0 (high activity))
CCCCC[C@H](O)/C=C/[C@H]1[C@H](O)CC(=O)[C@@H]1C/C=C/CCCC(=O)O (relative stereo) [Compound 60, 5-trans Prostaglandin E2]	B (1.1~2.0 (moderate))
CCCCCC(=O)CCC1C(O)CC(=O)C1CCCCCCC(=O)O (centres unmarked) [Compound 74, 13,14-dihydro-15-keto Prostaglandin E1]	B (1.1~2.0 (moderate))
CCCCC[C@H](O)/C=C/[C@H]1[C@H](O)CC(=O)[C@@H]1C/C=C/CCCC(=O)Oc1ccc(NC(C)=O)cc1 [Compound 44, Prostaglandin E2 p-acetamidophenyl ester]	A (above 2.0 (high activity))
CCCCC[C@H](O)/C=C/[C@H]1[C@H](O)CC(=O)[C@@H]1CCCCCCC(=O)Oc1ccc(NC(=O)c2ccccc2)cc1 [Compound 1, 4-Benzamidophenyl-7-((1R,2R,3R)-3-hydroxy-2-((S,E)-3-hydroxyoct-1-enyl)-5-oxocyclopentyl)heptanoate]	A (above 2.0 (high activity))
CCCCC[C@H](O)/C=C/[C@H]1[C@H](O)CC(=O)[C@@H]1C/C=C\CCCC(=O)OCC(O)CO (some centres unmarked) [Compound 24, Prostaglandin E2-1-glyceryl ester]	A (above 2.0 (high activity))
